1 compound from paper PMC11714696 (2024) can be followed below.

The subject of assay [1] is poly(A·U) (RNA, polymer) A/U. Put plainly: UV melting at 260 nm. Particulars: Na+ (25 mM NaCl, 10 mM sodium cacodylate); 10 mM cacodylate pH 7.0; 10 and 15 μM Nile blue; free Tm about 46.0 °C.
For assay [2], the system named is poly(A·U) (RNA, polymer) A/U. Put plainly: absorption titration, Benesi-Hildebrand. To be noted: Na+ (25 mM NaCl, 10 mM sodium cacodylate); 10 mM cacodylate pH 7.0, 0.1 mM Na2EDTA; RNA concentration by ε260 14280; per base.
For assay [3], the system named is poly(I·C) (RNA, polymer, inosine (hypoxanthine base) at every position of strand 1 (written as G)) G/C. Put plainly: fluorescence titration, Benesi-Hildebrand. To be noted: Na+ (25 mM NaCl, 10 mM sodium cacodylate); 10 mM cacodylate pH 7.0, 0.1 mM Na2EDTA; RNA concentration by ε260 10000; per base.
The subject of assay [4] is poly(A·U) (RNA, polymer) A/U. Description: fluorescence titration, Benesi-Hildebrand. Particulars: Na+ (25 mM NaCl, 10 mM sodium cacodylate); 10 mM cacodylate pH 7.0, 0.1 mM Na2EDTA; RNA concentration by ε260 14280; per base.
The subject of assay [5] is poly(I·C) (RNA, polymer, inosine (hypoxanthine base) at every position of strand 1 (written as G)) G/C. Description: UV melting at 260 nm. To be noted: Na+ (25 mM NaCl, 10 mM sodium cacodylate); 10 mM cacodylate pH 7.0; 10 and 15 μM Nile blue; free Tm about 48.0 °C.
For assay [6] the test system is unchanged. Put plainly: absorption titration, Benesi-Hildebrand. To be noted: Na+ (25 mM NaCl, 10 mM sodium cacodylate); 10 mM cacodylate pH 7.0, 0.1 mM Na2EDTA; RNA concentration by ε260 10000; per base.

As for `CC[N+](CC)=c1ccc2nc3c(cc(N)c4ccccc43)oc-2c1`, the binding entry in assay [1] and in assay [5] was “yes” throughout. The KBH came out at 586000 M⁻¹ in assay [2], 113000 M⁻¹ in assay [3], 211000 M⁻¹ in assay [4] and 116000 M⁻¹ in assay [6].
